# PubChem BioAssay AID1845199 (Molecular Pharmacology Branch, DTP, NCI, 2023)
# pIC50: −log10 of the molar value.
# System: 556581-035-R-J1 tumor spheroid viability, % test/control
# Experiment: Anticancer human tumor 556581-035-R-J1 patient-derived ovarian carcinoma cell line growth inhibition
# Details: spheroids with HUVEC and MSC; for pIC50: curve of first compound; for viability, T/C: stronger effect = lower value
# Source text: Multicellular complex tumor spheroid response to DNA repair inhibitors in combination with DNA-damaging drugs
# This study explores the anticancer activities of DNA-damaging drugs and inhibitors of DNA damage repair, both as single agents and in combinations. Complex tumor spheroids comprised of malignant cells, endothelial cells and mesenchymal stem cells served as an in vitro model for human solid tumors. This model system incorporates physiologically relevant features and patient-derived or established malignant cell lines with clinically relevant genetic alterations from many tumor types. Twenty-six patient-derived or established malignant cell lines were evaluated representing sarcoma, melanoma, small cell lung cancer (SCLC), non-small cell lung cancer (NSCLC), as well as bladder, ovarian and pancreatic cancers. The concentration ranges selected for each drug and investigational agent were based upon clinically achievable concentrations if the clinical Cmax of the agent was known.
# Compounds. The drugs and compounds olaparib (NSC753686), talazoparib (NSC767125), berzosertib (NSC777718), elimusertib (NSC800525), nedisertib (NSC802822), VX-984 (NSC792969), AZD-1390 (NSC803789), temozolomide (NSC362856), topotecan (NSC609699), trabectedin (NSC813783), staurosporine (NSC755774), and gemcitabine (NSC613327) were obtained from the National Cancer Institute (NCI) Developmental Therapeutics Program Chemical Repository. The FDA-approved anticancer drug set is available from the Developmental Therapeutics Program at https://dtp.cancer.gov/organization/dscb/obtaining/available_plates.htm. […] The stock solutions were prepared in dimethyl sulfoxide (DMSO, Sigma-Aldrich, St. Louis, MO, cat. D2650) at 400-fold the tested concentration and stored at -70 degrees C. Prior to their use, the stock solutions were diluted in fresh medium and the final DMSO concentration in the assay was 0.25% (v/v). All drugs and investigational agents were tested over a range starting from a high concentration at or near the clinical Cmax and decreasing in half-log increments. If the clinical Cmax for an agent had not been determined, the highest concentration tested was 10 microM.
# Cell Lines. The patient-derived cancer cell (PDC) lines: 156681-154-R-J1-PDC, 283228-195-R-J1-PDC, 287954-098-R-J1-PDC, 292921-168-R-J2-PDC, 349418-098-R-PDC, 425362-245-T-J1-PDC, 556581-035-R-J1-PDC, and BL0293-F563-PDC were received from the NCI Patient-Derived Models Repository (PDMR, https://pdmr.cancer.gov). The established cell lines HS-SY-2 (RRID:CVCL_8719), MPNST, and SYO-1 (RRID:CVCL_7146) were obtained from the Sloan Kettering Institute. The alveolar soft parts sarcoma cell line ASPS-1 (RRID:CVCL_S738) was established at the NCI and grown from internal seed stocks. The following established cell lines were purchased from the American Type Culture Collection (ATCC, Manassas, VA): G-401 (ATCC, cat. CRL-1441, RRID:CVCL_0270), SW982 (ATCC, cat. HTB-93, RRID:CVCL_1734), VA-ES-BJ (ATCC, cat. CRL-2138, RRID:CVCL_1785), NCI-H719 (ATCC, cat. CRL-5837, RRID:CVCL_1582), NCI-H196 (ATCC, cat. CRL-5823, RRID:CVCL_1509), NCI-H841 (ATCC, cat. CRL-5845, RRID:CVCL_1595), NCI-H1618 (ATCC, cat. CRL-5879, RRID:CVCL_1480), NCI-H1876 (ATCC, cat. CRL-5902, RRID:CVCL_1503), DMS 114 (ATCC, cat. CRL-2066; RRID:CVCL_1174), NCI-H211 (ATCC, cat. CRL-5824; RRID:CVCL_1529), and SW 1271 (ATCC, cat. CRL-2177, RRID:CVCL_1716). The small cell lung cancer cell line COR-L88 was purchased from Sigma-Aldrich (cat. 92031917-1VL, RRID:CVCL_1141). The non-small cell lung cancer cell lines NCI-H226 (RRID:CVCL_1544) and NCI-H322M (RRID:CVCL_1557) were established at the NCI and grown from internal seed stocks. Pooled donor human umbilical vein endothelial cells (HUVEC, Lonza, cat. CC-2519) and human mesenchymal stem cells (hMSC, Lonza, cat. PT-2501) were purchased from Lonza (Walkersville, MD).
# Cell Culture. All cells were maintained in an incubator at 37 degrees C and 5% CO2 with 95% humidity. […]
# 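Further: spheroids exposed to compounds for 7 days before viability read.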
compound,measurement,setting,value
CNCc1ccc(-c2cc(-c3nc(-c4ccc(S(=O)(=O)C(C)C)cc4)cnc3N)on2)cc1 + CC[C@@]1(O)C(=O)OCc2c1cc1n(c2=O)Cc2cc3c(CN(C)C)c(O)ccc3nc2-1,pIC50,second compound 0.003 µM,5.86
same,pIC50,second compound 0.00949 µM,5.93
same,pIC50,second compound 0.03 µM,6.07
same,pIC50,second compound 0.0949 µM,6.57
same,pIC50,second compound 0.3 µM,> 8.02
same,"viability, T/C","second compound 0.003 µM, first compound 0.00949 µM",101%
same,"viability, T/C","second compound 0.003 µM, first compound 0.03 µM",94.6%
same,"viability, T/C","second compound 0.003 µM, first compound 0.0949 µM",100%
same,"viability, T/C","second compound 0.003 µM, first compound 0.3 µM",104%
same,"viability, T/C","second compound 0.003 µM, first compound 0.949 µM",67.6%
same,"viability, T/C","second compound 0.003 µM, first compound 3 µM",13.7%
same,"viability, T/C","second compound 0.00949 µM, first compound 0.00949 µM",88.7%
same,"viability, T/C","second compound 0.00949 µM, first compound 0.03 µM",90.5%
same,"viability, T/C","second compound 0.00949 µM, first compound 0.0949 µM",87.1%
same,"viability, T/C","second compound 0.00949 µM, first compound 0.3 µM",93.6%
same,"viability, T/C","second compound 0.00949 µM, first compound 0.949 µM",59%
same,"viability, T/C","second compound 0.00949 µM, first compound 3 µM",9.61%
same,"viability, T/C","second compound 0.03 µM, first compound 0.00949 µM",83.7%
same,"viability, T/C","second compound 0.03 µM, first compound 0.03 µM",84.7%
same,"viability, T/C","second compound 0.03 µM, first compound 0.0949 µM",92.4%
same,"viability, T/C","second compound 0.03 µM, first compound 0.3 µM",75%
same,"viability, T/C","second compound 0.03 µM, first compound 0.949 µM",47.8%
same,"viability, T/C","second compound 0.03 µM, first compound 3 µM",9.43%
same,"viability, T/C","second compound 0.0949 µM, first compound 0.00949 µM",64.4%
same,"viability, T/C","second compound 0.0949 µM, first compound 0.03 µM",67%
same,"viability, T/C","second compound 0.0949 µM, first compound 0.0949 µM",59%
same,"viability, T/C","second compound 0.0949 µM, first compound 0.3 µM",47.6%
same,"viability, T/C","second compound 0.0949 µM, first compound 0.949 µM",31.3%
same,"viability, T/C","second compound 0.0949 µM, first compound 3 µM",1.58%
same,"viability, T/C","second compound 0.3 µM, first compound 0.00949 µM",16.8%
same,"viability, T/C","second compound 0.3 µM, first compound 0.03 µM",15.9%
same,"viability, T/C","second compound 0.3 µM, first compound 0.0949 µM",14.3%
same,"viability, T/C","second compound 0.3 µM, first compound 0.3 µM",11.8%
same,"viability, T/C","second compound 0.3 µM, first compound 0.949 µM",8.45%
same,"viability, T/C","second compound 0.3 µM, first compound 3 µM",0.85%
